Assay results taken from ChEMBL document CHEMBL3046400, “Variation in the laboratory susceptibility of turf-infesting white grubs (Coleoptera: Scarabaeidae) to biological, biorational and chemical control products” (2010).

Columns and labels:
Assay type in all cases: functional
Amphimallon majale [1] = experiment: Insecticidal activity against Amphimallon majalis (European chafer) assessed as mortality after 30 days
Amphimallon majale [2] = experiment: Insecticidal activity against Amphimallon majalis (European chafer) assessed as mortality after 20 days
Amphimallon majale [3] = experiment: Insecticidal activity against Amphimallon majalis (European chafer) assessed as mortality after 10 days
Popillia japonica [4] = experiment: Insecticidal activity against Popillia japonica assessed as mortality after 30 days
Popillia japonica [5] = experiment: Insecticidal activity against Popillia japonica assessed as mortality after 20 days
Popillia japonica [6] = experiment: Insecticidal activity against Popillia japonica assessed as mortality after 10 days
Maladera castanea [7] = experiment: Insecticidal activity against Maladera castanea assessed as mortality after 30 days; design: concentration or dose not given beside the values
Maladera castanea [8] = experiment: Insecticidal activity against Maladera castanea assessed as mortality after 10 days; design: concentration or dose not given beside the values
Anomala orientalis [9] = experiment: Insecticidal activity against Anomala orientalis assessed as mortality after 30 days; design: concentration or dose not given beside the values
Anomala orientalis [10] = experiment: Insecticidal activity against Anomala orientalis assessed as mortality after 20 days; design: concentration or dose not given beside the values
Anomala orientalis [11] = experiment: Insecticidal activity against Anomala orientalis assessed as mortality after 10 days; design: concentration or dose not given beside the values
Maladera castanea [12] = experiment: Insecticidal activity against Maladera castanea assessed as mortality after 20 days; design: concentration or dose not given beside the values

SMILES	Activity (Amphimallon majale [1])	Activity (Amphimallon majale [2])	Activity (Amphimallon majale [3])	Activity (Popillia japonica [4])	Activity (Popillia japonica [5])	Activity (Popillia japonica [6])	Activity (Maladera castanea [7])	Activity (Maladera castanea [8])	Activity (Anomala orientalis [9])	Activity (Anomala orientalis [10])	Activity (Anomala orientalis [11])	Activity (Maladera castanea [12])
CN/C(=N/CC1CCOC1)N[N+](=O)[O-] (stereo not given) [DINOTEFURAN]	8.9%	2.2%	0%	86.2%	69.3%	54.4%						
Cc1c(COC(=O)[C@@H]2[C@H](/C=C(\Cl)C(F)(F)F)C2(C)C)cccc1-c1ccccc1 [BIFENTHRIN]	0%	0%	0%	86.7%	59.3%	36.9%						
CN/C(=N\[N+](=O)[O-])NCc1cnc(Cl)s1 [CLOTHIANIDINE]	44.3%	22.6%	19.8%	32.8%	22.9%	4%	100%	39.8%	98.6%	89.3%	56%	75.7%
C/C=C(\C)C(=O)O[C@H]1C[C@@H](OC(C)=O)[C@@]2(C(=O)OC)CO[C@H]3[C@@H](O)[C@@](C)([C@]45O[C@@]4(C)[C@@H]4C[C@H]5O[C@@H]5OC=C[C@@]54O)[C@H]4[C@]1(CO[C@]4(O)C(=O)OC)[C@@H]32 [AZADIRACHTIN A]	15.8%	1.1%	4%	87.2%	64.1%	74.3%						
O=[N+]([O-])/N=C1\NCCN1Cc1ccc(Cl)nc1 [IMIDACLOPRID]	34.2%	18.3%	13%	41.7%	22.6%	9.1%	38.8%	9.2%	68.3%	30.1%	9.7%	12.2%
CC[C@H]1CCC[C@H](O[C@H]2CC[C@H](N(C)C)[C@@H](C)O2)[C@@H](C)C(=O)C2=C[C@@H]3[C@@H](C=C(C)[C@@H]4C[C@@H](O[C@@H]5O[C@@H](C)[C@H](OC)[C@@H](OC)[C@H]5OC)C[C@@H]34)[C@@H]2CC(=O)O1.CC[C@H]1CCC[C@H](O[C@H]2CC[C@H](N(C)C)[C@@H](C)O2)[C@@H](C)C(=O)C2=C[C@@H]3[C@@H](C=C[C@@H]4C[C@@H](O[C@@H]5O[C@@H](C)[C@H](OC)[C@@H](OC)[C@H]5OC)C[C@@H]34)[C@@H]2CC(=O)O1	26.5%	11.8%	17.1%	58.9%	33.5%	7.3%	79.6%	6.6%	59%	31.4%	3.2%	20.6%
COP(=O)(OC)C(O)C(Cl)(Cl)Cl (stereo not given) [TRICHLORFON]	7.4%	2.6%	6%	94.8%	92.6%	71.3%	100%	70.3%	96%	95.1%	95.6%	97.7%
CN1COCN(Cc2cnc(Cl)s2)/C1=N\[N+](=O)[O-] [THIAMETHOXAM]	35.1%	16.4%	13.1%	91%	74.9%	48.1%	72.8%	28.2%	78.7%	57.5%	27%	39.1%
CCOP(=S)(OCC)Oc1nc(Cl)c(Cl)cc1Cl [CHLORPYRIFOS]	100%	89%	43%	100%	84.4%	62.7%	92.4%	65.5%	98.6%	94.8%	87.9%	89.6%
